Each structure is given as a SMILES string.

The test has as its target T1, Olfr90 (Mus musculus, UniProt Q0VEL5).
T1 construct: Flag; expressed in transfected cells; host or cells: HEK293T
T1 sequence (Q0VEL5 1-310): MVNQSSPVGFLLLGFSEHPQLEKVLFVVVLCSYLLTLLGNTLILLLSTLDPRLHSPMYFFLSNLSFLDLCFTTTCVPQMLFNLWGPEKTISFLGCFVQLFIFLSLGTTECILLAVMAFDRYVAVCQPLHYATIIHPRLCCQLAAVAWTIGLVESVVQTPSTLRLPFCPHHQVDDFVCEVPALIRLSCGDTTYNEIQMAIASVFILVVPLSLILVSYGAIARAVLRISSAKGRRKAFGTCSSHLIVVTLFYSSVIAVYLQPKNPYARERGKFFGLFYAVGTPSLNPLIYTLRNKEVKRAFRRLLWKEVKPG
Kind of test: Luciferase reporter assay for ligand screening, HEK293T cells transfected with Lucy-Olfr90. Format: cell-based. The conditions noted are these: FIG. 2: p<0.0005 for all conditions vs 0 mM. A general note: In a reporter assay the amount or activity of a reporter protein is the signal.
Excerpt: HEK293T cells were transfected with Lucy-Olfr90 and two luciferase constructs, one of which was constitutively active (Renilla) while the other was only activated by an increase in intracellular cyclic AMP due to ligand binding (Firefly).
A luciferase reporter assay was employed for ligand screening (FIG. 1). In this assay, Olfr90 may be transfected into HEK293T cells along with a firefly luciferase construct whose activity is dependent upon elevated [cAMP]i. Upon binding its ligand, the expressed Olfr90 increases [cAMP]i, leading to increased transcription of firefly luciferase (FIG. 1). A constitutively active luciferase (Renilla) is co-transfected; therefore, the ratio of Firefly/Renilla is a measure of OR activation.
In this assay, it is essential that the Olfr90 is on the cell surface. […] A novel N-terminal tag which allows for surface trafficking of the majority of the renal Olfr90 was used. This tag is a leucine rich 17 amino acid sequence (“Lucy” tag) that not only aids in trafficking to the surface, but is cleaved before the Olfr90 reaches the cell surface.
In HEK cells or hana3 cells, Olfr90 will be expressed along with along with a firefly luciferase construct whose activity is dependent upon elevated [cAMP]i. Olfr90 may be transfected with or without various chaperones (Ric8b, RTP1S, REEP, etc.) and with or without various tags (Rho, Flag, Lucy, etc.). Upon binding its ligand, the expressed OR increases [cAMP]i, leading to increased transcription of firefly luciferase. A constitutively active luciferase (Renilla) is co-transfected; therefore, the ratio of Firefly/Renilla is a measure of OR activation.
With `C=CC(C)(O)CCC=C(C)C` (stereo not drawn) [Linalool], the “Olfr90 response (luciferase output, Firefly/Renilla ratio) to isolated chemicals” value is “responded in a dose dependent manner”.

Consider `CCCC1CCSC(C)O1` (stereo not drawn) [MPOT, 2-Methyl-4-Propyl-3,1-Oxathiane], for which the “Olfr90 response (luciferase output, Firefly/Renilla ratio) to isolated chemicals” value is reported as “responded in a dose dependent manner”.

As for `C=CC(O)CCCCC` (stereo not drawn) [Odorant 1-Octen-3-ol, 1-Octen-3-ol], the “Olfr90 response (luciferase output, Firefly/Renilla ratio) to isolated chemicals” value is on record as “responded in a dose dependent manner”.

(Values after patent US11592445B2, “OLFR90 specificity and methods of detection” (THE JOHNS HOPKINS UNIVERSITY, priority 2016, dated 2023).)
